Laboratory results taken from US7312358B2, “Pharmaceutically active sulfanilide derivatives” (Laboratoires Serono SA, priority 2000, dated 2007).

How the values were obtained:
hOT receptor = target: T1, hOT receptor (Homo sapiens, UniProt P30559); assay: In vitro competition binding assay on hOT receptor with scintillating proximity assay; conditions: membranes from HEK293EBNA cells expressing hOT receptor; radiolabel [125I]-OVTA; SPA; read-out: Binding Affinity Human OT-R Ki
T1 construct: expressed in transfected cells; host or cells: HEK293EBNA cells (membranes)
T1 sequence (P30559 1-389): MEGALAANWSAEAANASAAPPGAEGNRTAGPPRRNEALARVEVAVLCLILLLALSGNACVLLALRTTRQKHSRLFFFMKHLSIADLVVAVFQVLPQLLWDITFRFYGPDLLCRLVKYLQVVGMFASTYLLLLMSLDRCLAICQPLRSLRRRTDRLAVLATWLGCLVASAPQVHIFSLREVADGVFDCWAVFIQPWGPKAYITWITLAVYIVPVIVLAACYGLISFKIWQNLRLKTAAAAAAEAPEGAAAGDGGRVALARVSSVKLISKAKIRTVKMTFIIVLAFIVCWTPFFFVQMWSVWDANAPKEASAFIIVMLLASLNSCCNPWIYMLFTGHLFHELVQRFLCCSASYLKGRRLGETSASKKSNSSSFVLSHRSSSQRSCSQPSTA
Description: a) In Vitro Competition Binding Assay on hOT Receptor with Scintillating Proximity Assay (Pharmaceutical Manufacturing International, 1992, p. 49-53 by Cook, N. D. et al)
This assays allows to determine the affinity of the test compounds for the OT receptor. Membranes from HEK293EBNA cells expressing the hOT receptor were resuspended in buffer containing 50 mM Tris-HCl, pH 7.4, 5 mM MgCl2 and 0.1% BSA (w/v). The membranes (2-4 μg) were mixed with 0.1 mg wheat-germ aglutinin (WGA) SPA bead (type A) and 0.2 nM of the radiolabel [^125I]-OVTA (OVTA being […] and is an analogue of OT for competition binding experiments). Non-specific binding was determined in the presence of 1 μM Oxytocin. The total assay volume was 100 μl. The plates (Corning (D NBS plate) were incubated at room temperature for 30 min and counted on a Mibrobeta plate counter. The tests compounds were used in concentrations of 30 μM, 10 μM, 1 μM, 300 nM, 100 nM, 10 nM, 1 nM, 100 pM, 10 pM. The competition binding data were analysed using the iterative, nonlinear, curve-fitting program, “Prism”.
(§1) The binding affinities to the oxytocin receptor of the sulfanilide derivatives claimed in the formula I were assessed using the above described in vitro biological assay. The values refer to the binding affinity (IC50; μM) of the example compounds according to formula I to the Oxytocin receptor. From the values shown in Table 1 it can be derived that said test compounds according to formula I do show a significant binding to the oxytocin receptor.

hV1a = hV1a (Homo sapiens, UniProt P37288); assay: In vitro competition binding assay on hV1a receptor with scintillating proximity assay; set-up: expressed in transfected cells; host or cells: CHO cells (membranes); conditions: membranes from CHO cells expressing hV1a receptor; radiolabel [125I]-LVA; SPA; read-out: Binding Affinity Human V1a Ki
Sequence of hV1a (P37288 whole entry): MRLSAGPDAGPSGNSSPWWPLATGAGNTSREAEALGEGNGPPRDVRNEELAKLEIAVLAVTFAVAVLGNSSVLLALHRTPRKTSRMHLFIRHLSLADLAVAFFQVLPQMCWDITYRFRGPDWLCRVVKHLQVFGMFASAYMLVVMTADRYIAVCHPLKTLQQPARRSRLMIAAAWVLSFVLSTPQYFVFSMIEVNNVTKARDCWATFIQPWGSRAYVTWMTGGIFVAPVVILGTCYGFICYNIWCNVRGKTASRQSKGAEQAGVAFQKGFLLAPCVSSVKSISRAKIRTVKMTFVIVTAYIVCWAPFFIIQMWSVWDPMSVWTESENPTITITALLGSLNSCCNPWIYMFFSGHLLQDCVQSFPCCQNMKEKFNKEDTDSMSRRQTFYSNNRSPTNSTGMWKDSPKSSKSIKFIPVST
Description: b) In Vitro Competition Binding Assay on hV1a Receptor with Scintillating Proximity Assay
This assays allows to determine the affinity of the test compounds for the V1a receptor. Membranes from CHO cells expressing the hV1a receptor were resuspended in buffer containing 50 mM Tris-HCl, pH 7.4, 5 mM MgCl2 and 0.1% BSA (w/v). The membranes (5-10 μg) were mixed with 0.2 mg wheat-germ aglutinin (WGA) SPA bead (type A) and 0.03 nM of the radiolabel [^125I]-LVA (LVA being Linear Vasopressin Antagonist and is an analogue of AVP for competition binding experiments). Non-specific binding was determined in the presence of 1 μM AVP. The total assay volume was 100 μl. The plates (Corning 0 NBS plate) were incubated at room temperature for 2 hours and counted on a Mibrobeta plate counter. The tests compounds were used in concentrations of 30 μM, 10 μM, 1 μM, 300 nM, 100 nM, 10 nM, 1 nM, 100 pM, 10 pM. The competition binding data were analysed using the iterative, nonlinear, curve-fitting program, Graph pad “Prism”.
as §1, with “Via” for “oxytocin”, “HM)” for “μM)”, “V1a” for “Oxytocin”

hOT-R = target: T2, hOT-R (Homo sapiens, UniProt P30559); assay: Inhibition of oxytocin mediated Ca2+-mobilization by FLIPR (HEK cells); type: cell-based; conditions: fluo-4, OT 40 nM
T2 construct: expressed in transfected cells; host or cells: HEK (Human Embryonic Kidney) cells
T2 sequence (P30559 1-389): T1 sequence (P30559 1-389)
From the text: c) Functional Assay No. 1: Inhibition of Oxytocitn Mediated Ca^2+-Mobilization by FLIPR (Fluorescent Imaging Plate Reader)
FLIPR is a machine for fluorescence imaging using a laser that is capable of illuminating a 96-well plate and a means of simultaneously reading each well thus enabling rapid measurements on a large number of samples.
This assay intends to show the inhibition of the OT/OT-R mediated calcium mobilisation—being necessary to cause uterine contractions—by using test compounds of formula (I).
Preparing the plates: FLIPR-plates were pre-coated with PLL (Poly-L-Lysine) 10 μg/ml+0.1% gelatine to attach the HEK (Human Embryonic Kidney) cells for 30 min up to 2 days at 37° C. The cells were plated out into 96-well plates (60000 cells/well).
Labelling with fluo-4: […] fluo-4 (fluorescent marker) were dissolved in 20 μl pluronic acid (20% in DMSO). The dissolved fluo-4 was then diluted in 10 ml DMEM (Dubecco's Minimal Essential Medium-F12 medium without FCS (Fetal Calf Serum). The medium was removed from the plates, followed by one wash with DNEM-F12 medium. Now, 100 μl of the DMEM-F12 medium containing fluo-4 were added and the cells incubated for 1.5-2 h (HEK-cells). The cells now contain the fluorescent marker.
Buffer: 145 mM NaCl, 5 mM KCl, 1 mM MgCl2, 10 mM Hepes, 10 mM Glucose, EGTA (Ethylene-bis oxyethylene nitrilo tetraacetic acid). Adjust to pH 7.4.
Performance of the assay: A minimum of 80 μl/well of antagonists (5×) in the above buffer (1×) were prepared (96-well plates). The antagonists were added to the well-plates at different concentrations (30 μM, 10 μM, 1 μM, 300 nM, 100 nM, 10 nM, 1 nM, 100 pM, 10 pM).
OT is added at a concentration of 40 nM.
The fluorescent marker being sensitive to the amount of Ca^2+ mobilized within the cell may be quantified by the FLIPR machine.
The activities of the sulfanilide derivatives according to formula I were assessed using the above described in vitro biological assay. The values refer to the capacity of the example compounds according to formula I to effectively antagonize oxytocin-induced intracellular Ca^2+-mobilization mediated by the oxytocin receptor.

[1] = test system: oxytocin-induced uterine contractions in the rat; assay: In vivo model for inhibition of uterine contractions; conditions: anaesthetised DES-treated non-pregnant female rat, route not given
Description: f) In Vivo Model for Inhibition of Uterine Contractions
The assay intends to show the biological effect of tested compounds in an in vivo model of preterm labor, premature birth.
Non-pregnant Charles River CD(SD) BR female rats (9-10 weeks old, 200-250 g) were treated at 18 and 24 hours before the experiment with 250 μg/kg, i.p. diethylstilbestrol (DES). For the assay, the animal was anaesthetised by urethane (1.75 g/kg, i.p.) and placed on an homeothennic operating table. The trachea was isolated and cannulated with a suitable polyethylene (PE) tubing. A midline incision at the hypogastrium level was made and one uterine horn exposed, its cephalic end cannulated with a PE240 tubing and, after filling the internal cavity with 0.2 ml of sterile physiological saline, connected to a “Gemini” amplifying/recording system via a P231D Gould Statham pressure transducer. For the i.v. route of administration of the test compounds, one jugular vein was isolated and cannulated with a PE60 tubing connected to a butterfly needle to allow the administration by a dispensing syringe. In the case of intraduodenal administration of the test compounds, the duodenum was isolated and similarly cannulated through a small incision in its wall. One carotid artery was also isolated and cannulated with PE60 catheter and connected to a suitable syringe for blood sample collection (see below). After a stabilization period, the same dose of oxytocin was repeatedly injected intravenously at 30-min intervals. […] Further injections of the same dose of oxytocin were then made for a suitable time after treatment to assess inhibitory effects of the compounds under study. The contractile response of the uterus to oxytocin was quantified by measuring the intra-uterine pressure and the number of contractions. The effect of the reference and test compounds were evaluated by comparing pre- and post-treatment pressure values. In addition, at 2, 30, 90 and 210 minutes after test compound administration, a 0.5-ml blood sample was withdrawn from the cannulated carotid artery of each experimental animal. Plasma was obtained by standard laboratory procedure and the resulting samples were stored at −20° C.
The activities of the sulfanilide derivatives claimed in the Formula I were assessed using the above described in vivo biological assay. The values refer to the capacity of the example compound according to Formula I to effectively antagonize oxytocin-induced uterine contractions in the rat.

Structure (SMILES): CCOc1ccc(S(=O)(=O)N(CC(=O)N2CCc3ccccc3C2)c2ccc(C)cc2)cc1 [N-[2-(3,4-Dihydro-1H-isoquinolin-2-yl)-2-oxo-ethyl]-4-ethoxy-N-p-tolyl-benzenesulfonamide]
- Ki (hOT receptor): 246 nM
- Ki (hV1a): 375 nM

Structure (SMILES): COc1ccc(N(CC(=O)NCCSc2ccccn2)S(=O)(=O)c2ccc(C)cc2)cc1 [2-[(4-Methoxy-phenyl)-(toluene-4-sulfonyl)-amino]-N-[2-(pyridin-2-ylsulfanyl)-ethyl]-acetamide]
- Ki (hV1a): 430 nM

Structure (SMILES): Cc1ccc(N(CC(=O)NCC(O)c2ccccc2)S(=O)(=O)c2ccc(C)cc2)cc1 (stereo not shown) [N-(2-Hydroxy-2-phenyl-ethyl)-2-[(toluene-4-sulfonyl)-p-tolyl-amino]-acetamide]
- Ki (hV1a): 370 nM

Structure (SMILES): COc1ccc(N(CC(=O)Nc2ccc(C)cc2C)S(=O)(=O)c2ccc(OC)c(OC)c2)cc1 [2-[(3,4-Dimethoxy-benzenesulfonyl)-(4-methoxy-phenyl)amino]-N-(2,4-dimethyl-phenyl)-acetamide]
- Ki (hV1a): 135 nM

Structure (SMILES): C/C(=N\NC(=O)CN(c1ccc(Br)cc1)S(=O)(=O)c1ccccc1)c1ccccc1O [drawing 139, N-(4-Bromo-phenyl)-N-[1-(2-hydroxy-phenyl)-ethylidene-hydrazinocarbonylmethyl]-benzenesulfonamide]
- Ki (hV1a): 800 nM

Structure (SMILES): COc1ccc(N(CC(=O)Nc2ccc(C)cc2C)S(=O)(=O)c2ccccc2)cc1 [2-[Benzenesulfonyl-(4-methoxy-phenyl)-amino]-N-(2,4-dimethyl-phenyl)-acetamide]
- Ki (hV1a): 45 nM

Structure (SMILES): C/C(=N\NC(=O)CN(c1ccc(Br)cc1)S(=O)(=O)c1ccccc1)c1ccccc1O [drawing 134, N-(4-Bromo-phenyl)-N-[1-(2-hydroxy-phenyl)-ethylidenehydrazinocarbonylmethyl]-benzenesulfonamide]
- Ki (hV1a): 391 nM

Structure (SMILES): O=C(CN(c1ccc(Cl)cc1)S(=O)(=O)c1ccccc1)N/N=C/c1ccccc1O [N-(4-Chloro-phenyl)-N-(2-hydroxy-benzylidene-hydrazinocarbonylmethyl)-benzenesulfonamide]
- Ki (hV1a): 750 nM

Structure (SMILES): O=C(CN(c1cccc(Br)c1)S(=O)(=O)c1ccccc1)N/N=C/c1ccccc1O [N-(3-Bromo-phenyl)-N-(2-hydroxy-benzylidene-hydrazinocarbonylmethyl)-benzenesulfonamide]
- Ki (hV1a): 503 nM

Structure (SMILES): O=C(CN(c1ccc(Br)cc1)S(=O)(=O)c1ccccc1)N1CCc2ccccc2C1 [N-(4-Bromo-phenyl)-N-[2-(3,4-dihydro-1H-isoquinolin-2-yl)-2-oxo-ethyl]-benzenesulfonamide]
- Ki (hV1a): 58 nM

Structure (SMILES): O=C(CN(c1ccc(Cl)cc1)S(=O)(=O)c1ccc(OCCN2CCOCC2)cc1)NN=C1C(=O)Nc2ccccc21 [Example 55, N-(4-chlorophenyl)-4-[2-(4-morpholinyl)ethoxy]-N-{2-oxo-2-[2-(2-oxo-1,2-dihydro-3H-indol-3-ylidene)hydrazino]ethyl}benzenesulfonamide]
- Ki (hOT receptor): 0.8 nM
- IC50 (hOT-R): 7 nM
- % Reduction of Uterine Contraction ([1]; dose 0.3 mg/kg): 4.3 ± 1.7%
- % Reduction of Uterine Contraction ([1]; dose 1 mg/kg): 18.2 ± 3.7%
- % Reduction of Uterine Contraction ([1]; dose 3 mg/kg): 39.8 ± 5.1%
- % Reduction of Uterine Contraction ([1]; dose 10 mg/kg): 41.7 ± 12.5%
- % Reduction of Uterine Contraction ([1]; dose 30 mg/kg): 71.3 ± 6.4%

Structure (SMILES): CN(C)CCCOc1ccc(S(=O)(=O)N(CC(=O)N/N=C2\C(=O)Nc3ccccc32)c2ccc(Cl)cc2)cc1 [Example 67, N-(4-chlorophenyl)-4-[3-(dimethylamino)propoxy]-N-{2-oxo-2-[(2Z)-2-(2-oxo-1,2-dihydro-3H-indol-3-ylidene)hydrazino]ethyl}benzenesulfonamide]
- Ki (hOT receptor): 0.6 nM
- IC50 (hOT-R): 13.6 nM
- % Reduction of Uterine Contraction ([1]; dose 0.3 mg/kg): 9.3 ± 2.5%
- % Reduction of Uterine Contraction ([1]; dose 1 mg/kg): 20.8 ± 2.2%
- % Reduction of Uterine Contraction ([1]; dose 3 mg/kg): 34.4 ± 3.9%
- % Reduction of Uterine Contraction ([1]; dose 10 mg/kg): 57.1 ± 4.8%
- % Reduction of Uterine Contraction ([1]; dose 30 mg/kg): 67.4 ± 7.1%
